From US20040121946A9, “Inducing cellular immune responses to her2/neu using peptide and nucleic acid compositions” (priority 2002, published 2004)
Where no end group is shown, it is not given here.

Legend:
HLA-A*3101 = HLA-A*3101 (Homo sapiens, UniProt P04439, A270S/D185E/E176V/E277Q/F33T/G231S/G80R/H175R/I121M/I218V/I322F/K168Q/L300P/L318F/M331R/P217A/Q94H/R138Q/T323A/T345S/T97I/V358M); type: binding; details: Table XXIII, HLA-A3 supermotif-bearing peptides
HLA-A*0301 = HLA-A*0301 (Homo sapiens, UniProt P04439); type: binding; details: Table XXIII, HLA-A3 supermotif-bearing peptides
HLA-A*1101 = HLA-A*1101 (Homo sapiens, UniProt P04439, A114D/D185E/E176A/F33Y/L180Q/S129P/T187R); type: binding; details: Table XXIII, HLA-A3 supermotif-bearing peptides
HLA-A*6801 = HLA-A*6801 (Homo sapiens, UniProt P04439, A269V/D185E/E176V/E277Q/E87N/F33Y/G231S/I121M/I166T/I218V/L180W/L300P/L318F/N151K/P208A/P217A/Q86R/R169H/T345S); type: binding; details: Table XXIII, HLA-A3 supermotif-bearing peptides
[1] = test system: peptide-pulsed target cells and transfected cells endogenously expressing the antigen; assay: Recall CTL responses of PBMCs from ovarian cancer patients; type: cell-based, human; details: for recognition by CTLs from cancer patient PBMCs: two patients with ovarian cancer, peptide-pulsed targets and transfected cells
Excerpt: Immunogenicity was additionally confirmed using PBMCs isolated from cancer patients. Briefly, PBMCs were isolated from two patients with ovarian cancer, re-stimulated with peptide-pulsed monocytes and assayed for the ability to recognize peptide-pulsed target cells as well as transfected cells endogenously expressing the antigen.

HLA-A*3301 = HLA-A*3301 (Homo sapiens, UniProt P04439, A270S/D185E/E176V/E277Q/E87N/F33T/G231S/H175R/I121M/I218V/I322F/K168Q/K210R/L300P/L318F/M331R/P217A/Q86R/Q94H/R138Q/T323A/T345S/T97I/V358M/Y195H); type: binding; details: Table XXIII, HLA-A3 supermotif-bearing peptides
[2] = data from ovarian cancer patients

Sequence of HLA-A*1101 (P04439 25-365 limits assumed, stated change not applied): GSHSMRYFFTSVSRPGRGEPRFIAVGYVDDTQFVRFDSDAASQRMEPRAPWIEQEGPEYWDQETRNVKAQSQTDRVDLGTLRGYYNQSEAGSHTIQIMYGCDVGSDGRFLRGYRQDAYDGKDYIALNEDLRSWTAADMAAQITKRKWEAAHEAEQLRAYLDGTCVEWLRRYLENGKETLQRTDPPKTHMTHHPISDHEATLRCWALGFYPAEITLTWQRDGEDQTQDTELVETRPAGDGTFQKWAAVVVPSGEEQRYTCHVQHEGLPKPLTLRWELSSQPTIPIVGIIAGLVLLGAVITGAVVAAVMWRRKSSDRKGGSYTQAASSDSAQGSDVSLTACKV

## CC(C)[C@H](NC(=O)[C@@H](NC(=O)[C@@H](N)CCCNC(=N)N)[C@@H](C)O)C(=O)N[C@@H](CS)C(=O)N[C@@H](C)C(=O)NCC(=O)NCC(=O)N[C@@H](CS)C(=O)N[C@@H](C)C(=O)N[C@@H](CCCNC(=N)N)C(=O)O [Her2/neu.217]
HLA-A*3101
  IC50: 40 nM
HLA-A*0301
  IC50: 1620 nM
HLA-A*1101
  IC50: 462 nM
HLA-A*6801
  IC50: 320 nM

## CSCC[C@H](NC(=O)[C@@H](N)C(C)C)C(=O)N[C@@H](C)C(=O)NCC(=O)N[C@H](C(=O)NCC(=O)N[C@@H](CO)C(=O)N1CCC[C@H]1C(=O)N[C@@H](Cc1ccc(O)cc1)C(=O)N[C@H](C(=O)O)C(C)C)C(C)C [Her2/neu.773]
[1]
  recognition by CTLs from cancer patient PBMCs: recognized by CTLs from only one of the two patients

## CC[C@H](C)[C@H](NC(=O)[C@H](CC(=O)O)NC(=O)[C@H](CCCCN)NC(=O)[C@H](Cc1c[nH]c2ccccc12)NC(=O)[C@H](CC(C)C)NC(=O)[C@@H](NC(=O)[C@@H](N)[C@@H](C)O)C(C)C)C(=O)N[C@@H](Cc1ccccc1)C(=O)N[C@@H](Cc1c[nH]cn1)C(=O)N[C@@H](CCCNC(=N)N)C(=O)O [Her2/neu.166.V2R10]
HLA-A*3101
  IC50: 600 nM
HLA-A*3301
  IC50: 76 nM
HLA-A*0301
  IC50: 8460 nM
HLA-A*1101
  IC50: 286 nM
HLA-A*6801
  IC50: 42 nM

## CC[C@H](C)[C@H](N)C(=O)N[C@H](C(=O)N[C@@H](Cc1c[nH]c2ccccc12)C(=O)N[C@@H](CCCCN)C(=O)N[C@@H](CC(=O)O)C(=O)N[C@H](C(=O)N[C@@H](Cc1ccccc1)C(=O)N[C@@H](Cc1c[nH]cn1)C(=O)N[C@@H](CCCCN)C(=O)O)[C@@H](C)CC)C(C)C [Her2/neu.167.V2]
HLA-A*3101
  IC50: 247 nM
HLA-A*3301
  IC50: 853 nM
HLA-A*0301
  IC50: 23 nM
HLA-A*1101
  IC50: 40 nM
HLA-A*6801
  IC50: 178 nM

## CC(C)C[C@H](NC(=O)[C@@H](N)Cc1c[nH]cn1)C(=O)N[C@@H](Cc1ccc(O)cc1)C(=O)N[C@@H](CCC(N)=O)C(=O)NCC(=O)N[C@@H](CS)C(=O)N[C@@H](CCC(N)=O)C(=O)N[C@H](C(=O)N[C@H](C(=O)O)C(C)C)C(C)C [Her2/neu.48]
[1]
  recognition by CTLs from cancer patient PBMCs: recognized in 2 donors

## CC(C)C[C@H](NC(=O)[C@@H](N)Cc1c[nH]cn1)C(=O)N[C@@H](Cc1ccc(O)cc1)C(=O)N[C@@H](CCC(N)=O)C(=O)NCC(=O)N[C@@H](CS)C(=O)N[C@@H](CCC(N)=O)C(=O)N[C@H](C(=O)N[C@H](C(=O)O)C(C)C)C(C)C
[1]; [2]
  CTL Tumor: 1/2
  CTL Wildtype: 2/2

## TILWKDIFHK [Her2/neu.166]
HLA-A*3101
  IC50: 487 nM
HLA-A*3301
  IC50: 690 nM
HLA-A*0301
  IC50: 256 nM
HLA-A*1101
  IC50: 1.7 nM
HLA-A*6801
  IC50: 200 nM
